From patent US11912667B2, “Morphic forms of hexadecyloxypropyl-phosphonate esters and methods of synthesis thereof” (EMERGENT BIODEFENSE OPERATIONS LANSING LLC, priority 2013, dated 2024)
Values joined by “and” are separate entries in the source; they are usually repeats but may differ in a detail not shown here. Identical values can stand only once. Blank lines part the entries; values can stand above or below the compound they belong to.

Legend:
Type in all cases: physicochemical
[1] = Particle size analysis (PSA), Malvern Mastersizer 2000
From the text: Particle size data was acquired using a Malvern Instruments Mastersizer 2000 equipped with a Hydro2000 μP dispersion unit. Data was collected and analyzed using Mastersizer 2000 software (v. 5.60) using volume based measurements. NIST-traceable glass beads were used to qualify the instrument.

[2] = Methanol solubility and metastable zone (MSZ), Crystal16; details: for Cloud Point 2: 0.03 C./min cooling rate; for Cloud Point 1: 0.5° C./min cooling rate
Experimental: MSZW is a nucleation kinetic-limited parameter that is highly dependent on process condition. Many factors may influence the value of MSZW, e.g., rate of cooling, agitation, the presence of foreign particles and impurities. MSZW decreases as stirrer speed increases; MSZW widens at N>400 rpm; and MSZW widens as cooling rate rises. In one embodiment, large differences in the metastable zone are observed for both Form II and Form I between the rapid cooling rate of about 0.5° C./min and a very slow cooling rate of about 0.03° C./min. In another embodiment, narrow metastable cooling rates are observed at higher concentrations (e.g., about 100 mg/mL).

[3] = Weight increase upon increasing relative humidity; details: upon increasing relative humidity from 5.0% to 95.0%
From the text: In another embodiment of the invention, provided herein is Form II characterized as a solid form of Compound 1, such that the solid form undergoes a weight increase of less than 1.5% upon increasing relative humidity from 5.0% to 95.0%.

[4] = Slurry conversion of Form II to Form H in methanol:water, seeded with Form H; details: for Results (form recovered from slurry): stirred 7-9 days
Experimental: The present disclosure provides that an anhydrous form (e.g. Form II) is produced without forming a hydrate form (e.g., Form H) during the crystallization process, by determining the critical water concentration below which the anhydrous form is the stable form. The critical water concentration is determined by varying the methanol-water concentrations in the slurries.
In another embodiment, at concentrations of 97:3 methanol:water and greater, Form H was recovered from the slurries. These embodiments provide that the critical water concentration for forming Form II is between 1 and 3% water. In some embodiments, water in the initial methanol solvent is not accounted for, which results in slightly higher final water concentration than 1 and 3%. In additional embodiments, experiments, by varying the methanol-water concentrations in the slurries, is carried out at room temperature or at about 45° C. In one embodiment, the critical water concentration is less than 5% at room temperature and less than 10% at about 45° C. Mixtures of Form II and Form H are observed to convert to either Form II or Form H in methanol depending on the exact water content. The present disclosure provides that during crystallization of Form II, critical water activity remains very low up to about 45° C. and that water content in the final methanol recrystallization is a critical process parameter to control to avoid operating in conditions which favors formation of Form H.

[5] = Estimated solubility by aliquot addition of solvent, visual inspection; details: for solubility: thermodynamic from solid
Experimental: The present disclosure provides morphic Form II with low solubility in methanol. The solubility may be estimated based on the total volume of solvent needed to provide complete dissolution. The actual solubility may be greater than the value calculated due to the incremental addition of solvent and kinetics of dissolution of the material. […] Solubility Determination: Aliquots of test solvents or solvent mixtures were added to weighed samples of Compound 1. Samples were sonicated as needed between additions to facilitate dissolution. Complete dissolution of the test material in each solvent was determined by visual inspection. The solubility was estimated based on the total volume of solvent needed to provide complete dissolution. The actual solubility may be greater than the value calculated due to the incremental addition of solvent and kinetics of dissolution of the material. […] See Table 2 and discussion under “Solubility” section in the “Detailed Description” of the present disclosure.

[6] = Relative humidity (RH) stressing of Form II
From the text: In some embodiments, a composition comprising morphic Form II of the present disclosure converts to a hydrate Form (e.g., Form H) if stored under relative humidity (RH) of 40% or more. In some embodiments, a composition comprising morphic Form II of the present disclosure partially converts to morphic Form H if stored under relative humidity of equal to or more than 40% for several days. […] A complete conversion of a composition comprising the morphic Form II of the present disclosure occurs at about equal to or more than 80% RH, about equal to or more than 81% RH, about equal to or more than 82% RH, about equal to or more than 83% RH, about equal to or more than 84% RH, about equal to or more than 85% RH, about equal to or more than 86% RH, about equal to or more than 87% RH, about equal to or more than 88% RH, about equal to or more than 89% RH over between 5-20 days (e.g., 5 days, 6 days, 7 days, 8 days, 9 days, 10 days, 11 days, 12 days, 13 days, 14 days, 15 days, 16 days, 17 days, 18 days, 19 days, 20 days).
The present disclosure provides that exposure of Form II to higher humidity is sufficient for conversion to the hydrate form.

[7] = Stable form screening slurries and interconversion studies; details: for Form recovered from slurries: seeded with Form I, about two weeks
Experimental: In order to aid in the design of solid form screening experiments, solubility estimates were completed in various solvent systems using Form II at ambient and elevated temperature. […] Slurries were set up in a variety of solvent systems to determine the stable form and the potential of Compound 1 to form stable solvates. The slurries were prepared using Form II and each was seeded with Form I. Each of the slurries was stirred for about two weeks and most of the slurries were run at room temperature although a few were run at sub-ambient and elevated temperatures (˜45° C.). […] A few samples did show a minor amount of Form I in Form II likely due to poor conversion kinetics due to limited solubility. […] Interconversion studies starting with a mixture of Form I and Form II were also run in methanol at room temperature and ˜45° C.

[8] = crystallized from methanol ~10 vols, seed ~0.5% Form II at ~58° C.
[9] = crystallized from methanol ~10 vols, seed ~3% Form II
[10] = 10% of total volume of particles no larger than the indicated size
[11] = 50% of total volume of particles no larger than the indicated size
[12] = 90% of total volume of particles no larger than the indicated size

particle size distribution, volume weighted mean ([1]; FIG. 5): 25.663
d10 [1, 8]: d10 = 17.8 μm
d50 [1, 8]: 69.6 μm;
d90 [1, 8]: d90 = 160.9 μm
d10 [1, 9]: d10 = 9.8 μm
d50 [1, 9]: 34.4 μm;
d90 [1, 9]: d90 = 101.7 μm
Solubility in methanol compared to Form I [2]: Lower solubility
Clear Point ([2]; 20.3 mg/mL): 53.6 °C
Cloud Point 2 ([2]; 20.3 mg/mL): 38.2 °C
Cloud Point 1 ([2]; 20.3 mg/mL): 37.6 °C
Clear Point ([2]; 29.4 mg/mL): 56.2 °C
Cloud Point 2 ([2]; 29.4 mg/mL): 44.6 °C
Cloud Point 1 ([2]; 29.4 mg/mL): 45.1 °C
Clear Point ([2]; 38.9 mg/mL): 58.1 °C
Cloud Point 2 ([2]; 38.9 mg/mL): 51.1 °C
Cloud Point 1 ([2]; 38.9 mg/mL): 45.1 °C
Clear Point ([2]; 50.5 mg/mL): 60.2 °C
Cloud Point 2 ([2]; 50.5 mg/mL): 56.6 °C
Cloud Point 1 ([2]; 50.5 mg/mL): 51.0 °C
Clear Point ([2]; 64.3 mg/mL): 60.5 °C
Cloud Point 2 ([2]; 64.3 mg/mL): 58.8 °C
Cloud Point 1 ([2]; 64.3 mg/mL): 48.5 °C
Clear Point ([2]; 80.4 mg/mL): 61.2 °C
Cloud Point 2 ([2]; 80.4 mg/mL): 57.9 °C
Cloud Point 1 ([2]; 80.4 mg/mL): 49.7 °C
Clear Point ([2]; 95.6 mg/mL): 61.9 °C
Cloud Point 2 ([2]; 95.6 mg/mL): 59.9 °C
Cloud Point 1 ([2]; 95.6 mg/mL): 58.1 °C
Clear Point ([2]; 166.6 mg/mL): 63.1 °C
Cloud Point 2 ([2]; 166.6 mg/mL): 61.1 °C
Cloud Point 1 ([2]; 166.6 mg/mL): 58.1 °C
weight increase [3]: less than 1.5%
Results (form recovered from slurry) ([4]; Methanol:water (80:20), ~44-45 °C): Form H
Results (form recovered from slurry) ([4]; Methanol:water (85:15), ~44-45 °C): Form H
Results (form recovered from slurry) ([4]; Methanol:water (90:10), RT): Form H
Results (form recovered from slurry) ([4]; Methanol:water (90:10), ~44-45 °C): Form H
Results (form recovered from slurry) ([4]; Methanol:water (93:7), RT): Form H
Results (form recovered from slurry) ([4]; Methanol:water (93:7), ~2-8 °C): Form H
Results (form recovered from slurry) ([4]; Methanol:water (95:5), RT): Form H
Results (form recovered from slurry) ([4]; Methanol:water (95:5), ~2-8 °C): Form H
Results (form recovered from slurry) ([4]; Methanol:water (95:5), ~44-45 °C): Form II +
Results (form recovered from slurry) ([4]; Methanol:water (97:3), RT): Form II +
Results (form recovered from slurry) ([4]; Methanol:water (97:3), ~2-8 °C): Form H
Results (form recovered from slurry) ([4]; Methanol:water (99:1), ~2-8 °C): Form II
critical water concentration ([4]; about 45° C. slurries in methanol:water): less than 10%
critical water concentration ([4]; room temperature slurries in methanol:water): less than 5%
Solubility in various solvent systems ([5]; ambient and elevated temperature, each of the solvents tested): poor solubility
solubility ([5]; aqueous with cosolvent or surfactant or cyclodextrin, Methanol:Water 1:1, RT, estimated): < 3000 µg/mL
solubility ([5]; aqueous with cosolvent or surfactant or cyclodextrin, Methanol:Water 1:1, ~63 °C, estimated): < 14000 µg/mL
solubility ([5]; organic solvent or mixture, Trifluoroethanol, estimate): > 5000 µg/mL
Conversion to hydrate form on RH exposure ([6]; about 43% RH for about 12 days): partially converts to a hydrate form
Conversion from Form II to Form H on RH exposure ([6]; about 43 to about 85% RH for about 12 days): minor conversion from Form II to Form H
Conversion from Form II to Form H on RH exposure ([6]; about 85% RH): complete conversion of Form II to Form H
Form recovered from slurries ([7]; anhydrous solvent systems, mostly room temperature): Form II was recovered
Form recovered from slurries ([7]; aqueous solvent systems): converted to the hydrated form, Form H
Solids recovered from interconversion studies ([7]; starting with a mixture of Form I and Form II, methanol, room temperature and ~45° C.): consistent with Form II
Structure (SMILES): CCCCCCCCCCCCCCCCOCCCOP(=O)(O)CO[C@H](CO)Cn1ccc(N)nc1=O [Form II, phosphonic acid, [[(S)-2-(4-amino-2-oxo-1(2H)-pyrimidinyl)-1-(hydroxymethyl)ethoxy]methyl]mono[3-(hexadecyloxy)propyl] ester]

d10 [1, 10]: 17.410 μm
d50 [1, 11]: 85.440 μm
d90 [1, 12]: 199.029 μm
Structure (SMILES): CCCCCCCCCCCCCCCCOCCCOP(=O)(O)CO[C@H](CO)Cn1ccc(N)nc1=O [Sample 4]

d10 [1, 10]: 19.297 μm
d50 [1, 11]: 81.603 μm
d90 [1, 12]: 168.698 μm
Structure (SMILES): CCCCCCCCCCCCCCCCOCCCOP(=O)(O)CO[C@H](CO)Cn1ccc(N)nc1=O [Sample 1]

d10 [1, 10]: 19.896 μm
d50 [1, 11]: 101.748 μm and 101.745 μm
Structure (SMILES): CCCCCCCCCCCCCCCCOCCCOP(=O)(O)CO[C@H](CO)Cn1ccc(N)nc1=O [Sample 3]
